Source: patent US4861788A, “Antibacterial 1-normon-2-yl-heterocyclic compounds” (Beecham Group plc, priority 1983, dated 1989)
Converted amounts (≈) assume the structure as drawn. Where two headings read alike, the source gives them in different places.

Experiments:
M. hyopneumoniae JF 435 = assay: MIC against Mycoplasma in vitro (Friis broth with agarose); format: cell-based; conditions: Mesomycoplasma hyopneumoniae, JF435, 144 h
M. hyopneumoniae Str. 11 = assay: as above; format: cell-based; conditions: Mesomycoplasma hyopneumoniae
[1] = test system: M. hyopneumoniae J2206/183^b; assay: as above; format: cell-based; conditions: Mesomycoplasma hyopneumoniae, 144 h
M. hyopneumoniae UCD 1 = assay: as above; format: cell-based; conditions: Mesomycoplasma hyopneumoniae, UCD1, 144 h
M. hyopneumoniae TAM 6N = assay: as above; format: cell-based; conditions: Mesomycoplasma hyopneumoniae, TAM6N, 144 h
M. hyorhinis ATCC 23234 = assay: as above; format: cell-based; conditions: Mesomycoplasma hyorhinis, ATCC23234, 144 h
M. gallisepticum S6 = assay: as above; format: cell-based; conditions: Mycoplasmoides gallisepticum, 144 h; M. gallisepticum S6; 6 days at 37° C; read-out: MIC
M. pneumoniae ATCC 15492 = assay: as above; format: cell-based; conditions: Mycoplasmoides pneumoniae, ATCC15492, 144 h; M. pneumoniae ATCC 15492; 6 days at 37° C; read-out: MIC
Bacillus subtilis 6633 = assay: MIC against human bacteria in vitro (nutrient agar, chocolated horse blood); format: cell-based; conditions: human; Bacillus subtilis 6633; 18 hours at 37° C; read-out: MIC
Procedure: (§1) The activity of the normonyl derivaties of the Examples against various bacteria which are important in diseases of humans, was assayed in vitro using serial dilutions in nurient agar with 5% chocolated horse blood.

E. coli ESS = assay: as above; format: cell-based; conditions: Escherichia coli; human; E. coli ESS; 18 hours at 37° C; read-out: MIC
Procedure: as §1

E. coli NCTC 10418 = assay: as above; format: cell-based; conditions: Escherichia coli, NCTC10418; human; E. coli NCTC 10418; 18 hours at 37° C; read-out: MIC
Procedure: as §1

[2] = test system: Haemophilus influenzae Wy21; assay: as above; format: cell-based; conditions: human; Haemophilus influenzae Wy21; 18 hours at 37° C; read-out: MIC
Procedure: as §1

K. aerogenes A = assay: as above; format: cell-based; conditions: Klebsiella aerogenes; human; K. aerogenes A; 18 hours at 37° C; read-out: MIC
Procedure: as §1

P. mirabilis 889 = assay: as above; format: cell-based; conditions: Proteus mirabilis; human; P. mirabilis 889; 18 hours at 37° C; read-out: MIC
Procedure: as §1

[3] = test system: Pasteurella multocida 1633; assay: as above; format: cell-based; conditions: human; Pasteurella multocida 1633; 18 hours at 37° C; read-out: MIC
Procedure: as §1

[4] = test system: Ps. aeruginosa NCTC 10662; assay: as above; format: cell-based; conditions: Pseudomonas aeruginosa, NCTC10662; human; Ps. aeruginosa NCTC 10662; 18 hours at 37° C; read-out: MIC
Procedure: as §1

Sarcina lutea 8340 = assay: as above; format: cell-based; conditions: Micrococcus luteus; human; Sarcina lutea 8340; 18 hours at 37° C; read-out: MIC
Procedure: as §1

Staph. aureus Oxford [5] = assay: as above; format: cell-based; conditions: Staphylococcus aureus
Procedure: as §1

Staph. aureus Russell = assay: as above; format: cell-based; conditions: Staphylococcus aureus; human; Staph. aureus Russell; 18 hours at 37° C; read-out: MIC
Procedure: as §1

Staph. aureus W2827 = assay: as above; format: cell-based; conditions: Staphylococcus aureus; human; Staph. aureus W2827; 18 hours at 37° C; read-out: MIC
Procedure: as §1

Strep. agalactiae 2788-B = assay: as above; format: cell-based; conditions: Streptococcus agalactiae; human; Strep. agalactiae 2788-B; 18 hours at 37° C; read-out: MIC
Procedure: as §1

Strep. faecalis I = assay: as above; format: cell-based; conditions: Enterococcus faecalis; human; Strep. faecalis I; 18 hours at 37° C; read-out: MIC
Procedure: as §1

Strep. spp. 64/848-C = assay: as above; format: cell-based; conditions: human; Strep. spp. 64/848-C; 18 hours at 37° C; read-out: MIC
Procedure: as §1

S. typhimurium S18 = assay: MIC against veterinary bacteria in vitro (Diagnostic Sensitivity Test Agar); conditions: Salmonella enterica, 18 h
Procedure: (§2) The activity of the normonyl derivatives of the Examples against various veterinarily important bacteria, was assayed in vitro using two-fold serial dilutions in Diagnostic Sensitivity Test Agar inoculated with 10^4 organisms.

Past. haemolytica PA5 = assay: as above; conditions: Mannheimia haemolytica, PA5, 18 h
Procedure: as §2

[6] = test system: Corynebacterium pyogenes CY1; assay: as above; conditions: CY1, 18 h
Procedure: as §2

[7] = test system: Staph. aureus B4 (pen. resistant); assay: as above; conditions: Staphylococcus aureus, 18 h
Procedure: as §2

[8] = test system: Staph. aureus 152 (pen. sens); assay: as above; conditions: Staphylococcus aureus, 18 h
Procedure: as §2

Staph. aureus Oxford [9] = assay: as above; conditions: Staphylococcus aureus, 18 h
Procedure: as §2

[10] = test system: Strep. suis (group D) SPS11; assay: as above; conditions: Streptococcus suis, 18 h
Procedure: as §2

Strep. dysgalactiae SPD1 = assay: as above; conditions: Streptococcus dysgalactiae, SPD1, 18 h
Procedure: as §2

[11] = M. hyopneumoniae JF 435, 6 days at 37° C, read-out: MIC
[12] = M. hyopneumoniae J2206/183^b, 6 days at 37° C, read-out: MIC
[13] = M. hyopneumoniae TAM 6N, 6 days at 37° C, read-out: MIC
[14] = M. hyorhinis ATCC 23234, 6 days at 37° C, read-out: MIC
[15] = human, Staph. aureus Oxford, 18 hours at 37° C, read-out: MIC

SMILES: CC(=Cc1nnc(-c2ccco2)o1)CC1OCC(CC2OC2C(C)C(C)O)C(O)C1O (stereo not drawn) [Example 8, 2-(2-Furyl)-5-(1-normon-2-yl)-1,3,4-oxadiazole A]
- MIC (M. hyopneumoniae JF 435; [11]): 10 µg/mL (≈ 23 µM)
- MIC (M. hyopneumoniae Str. 11; 144 h, M. hyopneumoniae Str. 11, 6 days at 37° C, read-out: MIC): 5 µg/mL (≈ 11.5 µM)
- MIC [1, 12]: 10 µg/mL (≈ 23 µM)
- MIC (M. hyopneumoniae UCD 1; M. hyopneumoniae UCD 1, 6 days at 37° C, read-out: MIC): 5 µg/mL (≈ 11.5 µM)
- MIC (M. hyopneumoniae TAM 6N; [13]): 10 µg/mL (≈ 23 µM)
- MIC (M. hyorhinis ATCC 23234; [14]): 2.5 µg/mL (≈ 5.75 µM)
- MIC (M. gallisepticum S6): > 10 µg/mL
- MIC (M. pneumoniae ATCC 15492): > 10 µg/mL
- MIC (Bacillus subtilis 6633): 4 µg/mL (≈ 9.21 µM)
- MIC (E. coli ESS): 8 µg/mL (≈ 18.4 µM)
- MIC (E. coli NCTC 10418): > 128 µg/mL
- MIC [2]: 0.25 µg/mL (≈ 0.575 µM)
- MIC (K. aerogenes A): > 128 µg/mL
- MIC (P. mirabilis 889): > 128 µg/mL
- MIC [3]: 1 µg/mL (≈ 2.3 µM)
- MIC [4]: > 128 µg/mL
- MIC (Sarcina lutea 8340): > 128 µg/mL
- MIC (Staph. aureus Oxford [5]; [15]): 4 µg/mL (≈ 9.21 µM)
- MIC (Staph. aureus Russell): 64 µg/mL (≈ 147 µM)
- MIC (Staph. aureus W2827): 32 µg/mL (≈ 73.6 µM)
- MIC (Strep. agalactiae 2788-B): 32 µg/mL (≈ 73.6 µM)
- MIC (Strep. faecalis I): > 128 µg/mL
- MIC (Strep. spp. 64/848-C): 32 µg/mL (≈ 73.6 µM)
- MIC (S. typhimurium S18): > 80 µg/mL
- MIC (Past. haemolytica PA5): 40 µg/mL (≈ 92.1 µM)
- MIC [6]: > 80 µg/mL
- MIC [7]: 20 µg/mL (≈ 46 µM)
- MIC [8]: 40 µg/mL (≈ 92.1 µM)
- MIC (Staph. aureus Oxford [9]): 80 µg/mL (≈ 184 µM)
- MIC [10]: > 80 µg/mL
- MIC (Strep. dysgalactiae SPD1): 40 µg/mL (≈ 92.1 µM)

SMILES: CC(=Cc1nnc(-c2ccc(N(C)C)cc2)o1)CC1OCC(CC2OC2C(C)C(C)O)C(O)C1O (stereo not drawn) [Example 10, 2-(4-Dimethylaminophenyl)-5-(1-normon-2-yl)-1,3,4-oxadiazole A]
- MIC (M. hyopneumoniae JF 435): 1 µg/mL (≈ 2.05 µM)
- MIC (M. hyopneumoniae Str. 11; STR.11, 144 h): 1 µg/mL (≈ 2.05 µM)
- MIC [1]: 5 µg/mL (≈ 10.3 µM)
- MIC (M. hyopneumoniae UCD 1): 2.5 µg/mL (≈ 5.13 µM)
- MIC (M. hyopneumoniae TAM 6N): 5 µg/mL (≈ 10.3 µM)
- MIC (M. hyorhinis ATCC 23234): 1 µg/mL (≈ 2.05 µM)
- MIC (M. gallisepticum S6): > 10 µg/mL
- MIC (M. pneumoniae ATCC 15492): 10 µg/mL (≈ 20.5 µM)
- MIC (Bacillus subtilis 6633): 2 µg/mL (≈ 4.1 µM)
- MIC (E. coli ESS): 2 µg/mL (≈ 4.1 µM)
- MIC (E. coli NCTC 10418): > 128 µg/mL
- MIC [2]: 2 µg/mL (≈ 4.1 µM)
- MIC (K. aerogenes A): > 128 µg/mL
- MIC (P. mirabilis 889): > 128 µg/mL
- MIC [3]: 16 µg/mL (≈ 32.8 µM)
- MIC [4]: > 128 µg/mL
- MIC (Sarcina lutea 8340): > 128 µg/mL
- MIC (Staph. aureus Oxford [5]; 18 h): 1 µg/mL (≈ 2.05 µM)
- MIC (Staph. aureus Russell): 4 µg/mL (≈ 8.2 µM)
- MIC (Staph. aureus W2827): 4 µg/mL (≈ 8.2 µM)
- MIC (Strep. agalactiae 2788-B): 16 µg/mL (≈ 32.8 µM)
- MIC (Strep. faecalis I): > 128 µg/mL
- MIC (Strep. spp. 64/848-C): 16 µg/mL (≈ 32.8 µM)
- MIC (S. typhimurium S18): > 80 µg/mL
- MIC (Past. haemolytica PA5): 40 µg/mL (≈ 82 µM)
- MIC [6]: > 80 µg/mL
- MIC [7]: 5 µg/mL (≈ 10.3 µM)
- MIC [8]: 5 µg/mL (≈ 10.3 µM)
- MIC (Staph. aureus Oxford [9]): 20 µg/mL (≈ 41 µM)
- MIC [10]: > 80 µg/mL
- MIC (Strep. dysgalactiae SPD1): 80 µg/mL (≈ 164 µM)

SMILES: CC(=Cc1nnc(-c2cccc(C#N)c2)o1)CC1OCC(CC2OC2C(C)C(C)O)C(O)C1O (stereo not drawn) [Example 11, 2-(m-Cyanophenyl)-5-(1-normon-2-yl)-1,3,4-oxadiazole A]
- MIC (M. hyopneumoniae JF 435; [11]): 0.25 µg/mL (≈ 0.532 µM)
- MIC (M. hyopneumoniae Str. 11; STR.11, 144 h): 0.25 µg/mL (≈ 0.532 µM)
- MIC [1, 12]: 0.25 µg/mL (≈ 0.532 µM)
- MIC (M. hyopneumoniae UCD 1): 0.25 µg/mL (≈ 0.532 µM)
- MIC (M. hyopneumoniae TAM 6N; [13]): 0.25 µg/mL (≈ 0.532 µM)
- MIC (M. hyorhinis ATCC 23234; [14]): 0.1 µg/mL (≈ 0.213 µM)
- MIC (M. gallisepticum S6): > 10 µg/mL
- MIC (M. pneumoniae ATCC 15492): > 10 µg/mL
- MIC (Bacillus subtilis 6633): 2 µg/mL (≈ 4.26 µM)
- MIC (E. coli ESS): 2 µg/mL (≈ 4.26 µM)
- MIC (E. coli NCTC 10418): > 64 µg/mL
- MIC [2]: 0.5 µg/mL (≈ 1.06 µM)
- MIC (K. aerogenes A): > 64 µg/mL
- MIC (P. mirabilis 889): > 64 µg/mL
- MIC [3]: 2 µg/mL (≈ 4.26 µM)
- MIC [4]: > 64 µg/mL
- MIC (Sarcina lutea 8340): > 64 µg/mL
- MIC (Staph. aureus Oxford [5]; [15]): 8 µg/mL (≈ 17 µM)
- MIC (Staph. aureus Russell): 32 µg/mL (≈ 68.2 µM)
- MIC (Staph. aureus W2827): 16 µg/mL (≈ 34.1 µM)
- MIC (Strep. agalactiae 2788-B): 2 µg/mL (≈ 4.26 µM)
- MIC (Strep. faecalis I): > 64 µg/mL
- MIC (Strep. spp. 64/848-C): 2 µg/mL (≈ 4.26 µM)
- MIC (S. typhimurium S18): > 80 µg/mL
- MIC (Past. haemolytica PA5): 10 µg/mL (≈ 21.3 µM)
- MIC [6]: > 80 µg/mL
- MIC [7]: 20 µg/mL (≈ 42.6 µM)
- MIC [8]: 20 µg/mL (≈ 42.6 µM)
- MIC (Staph. aureus Oxford [9]): 5 µg/mL (≈ 10.6 µM)
- MIC [10]: > 80 µg/mL
- MIC (Strep. dysgalactiae SPD1): 2.5 µg/mL (≈ 5.32 µM)
